Test results taken from patent US11981693B2, “Organogermanium compound” (ASAI Germanium Research Institute Co., Ltd., priority 2019, dated 2024).
Where two headings read alike, the source gives them in different places.

Key:
[1] = Solubility of the THGP octamer in purified water or methanol, with pH of the solution; format: physicochemical
Experimental: To 100 mg of the THGP octamer obtained in (1), the process of adding purified water or methanol in small portions and stirring for 30 minutes at room temperature was repeated, and the volume of the solution was measured when the THGP octamer was visually observed to as completely dissolved. The solubility of the THGP octamer (Solute Amount (g)/Total Mass (g)×100%) was calculated from the measured volume. Furthermore, the pH of the solution was measured when the THGP octamer was completely dissolved.

[2] = Dissolution rate: time to visually complete dissolution in purified water; format: physicochemical
Experimental: 100 mg of Ge-132 and 100 mg of the THGP octamer were added to 10 mL of purified water, respectively, and the mixtures were stirred at 300 rpm at room temperature, and then the time required to be visually observed as completely dissolved was measured.

[3] = cited from earlier work
[4] = conventional THGP polymers, stated as known property

pH of the aqueous solution (in words) ([1]; dissolved in water) | solubility in methanol (Solute Amount (g)/Total Mass (g)×100%) ([1]; methanol, room temperature) | solubility in water (Solute Amount (g)/Total Mass (g)×100%) ([1]; purified water, room temperature, visually complete dissolution) | solubility (mass (g) of solute in 100 g of saturated solution) in water ([1]; water, 20° C.) | pH of the aqueous solution ([1]; when completely dissolved in water) | time required to completely dissolve ([2]; 100 mg in 10 mL purified water, 300 rpm, room temperature) | dissolving time ([2]; water, 20° C., same conditions as Ge-132) | time required for the crystals to completely dissolve ([2]; 100 mg in 10 mL purified water (1% aqueous solution), 300 rpm, room temperature) | time required for complete dissolution ([2]; 1% in water, 20° C.) | Substance | solubility in organic solvents, such as methanol [3, 4] | solubility in water [3, 4] | solubility (mass (g) of solute in 100 g of saturated solution) in water ([3]; water, 20° C., known comparator value)
neutral | 1.4% | 58.8% | 58.8% | around 7.5 | approximately 10 seconds | approximately 10 seconds |  |  | 1,7,9,15-tetra(2′-sodium carboxyethylgermanium)-3,5,11,13-tetra-[sodium propanato(2-)-C^3′,O′]-germanium-2,4,6,8,10,12,14,16,17,18,19,20-dodecaoxa-pentacyclo[8.1^1,5.1^7,11.1^9,13.1^3,15.]icosane [THGP octamer] |  |  | 
 |  |  |  |  |  |  | ≥ 30 min | ≥ 30 min | poly-trans-[(2-carboxyethyl)germasesquioxane] [Ge-132] | insoluble | approximately 1% | approximately 1%
